The values that follow come from US4609549A, “Biologically active substance from Islets-Activating Protein” (Kaken Pharmaceutical Co., Ltd., priority 1983, dated 1986).

The subject of series [1] is Epinephrine hyperglycemia. The series is described as follows: Epinephrine hyperglycemia inhibitory activity (EpI activity) one day after administration. Type of series: in vivo. The following applies: 12 μg/kg i.v., male Wistar rats. The protocol: IV. Epinephrine hyperglycemia inhibitory activity (EpI activity)
(§1) Each sample is intravenously injected to the male Wistar rats (about 150 g body weight) at a dose of 12 μg/kg, and after sample injection, epinephrine is subcutaneously injected to the rats under fast on a daily basis. The difference between blood sugar level before epinephrine injection and that one hour after injection is compared with the difference in the control group to thereby determine the EpI activity (%).
(§2) ΔGC : control group [(blood sugar level after epinephrine injection)-(blood sugar level before injection)]
(§3) ΔGT : sample-administered group [(blood sugar level after epinephrine injection)-(blood sugar level before injection)] [formula]
(§4) The control is non-modified IAP.

Series [2] deals with leukocyte count. As to the kind of experiment: Leukocytosis-promoting activity (ΔLP activity) one day after administration. The following applies: 12 μg/kg i.v., male Wistar rats. The protocol: V. Leukocytosis-promoting activity (ΔLP activity)
Each sample is intravenously injected into male Wister rats (about 150 g body weight) at a rate of 12 μg/kg, and the leukocyte count is measured on a daily basis. The leukocyte increment is determined from the difference in leukocyte count between the sample-administered group and the control group.
(§5) ΔLP activity=(leukocyte count in sample-administered
(§6) group)-(leukocyte count in control group)
The pharmacological activity, acute toxicity, and stability in an alkaline solution, of the resultant products obtained in the Examples were examined in the manners described above.
as §4

For a further series, the system named is ddY mice. As to the kind of experiment: Acute toxicity (LD50), intravenous. The class given is in vivo. The settings on record: i.v., ddY mice (male).
Excerpt: as §4

The subject of series [3] is Epinephrine hyperglycemia. As to the kind of experiment: Stability in methylamine solution: change with time of EpI activity. The following applies: 3.44M methylamine solution (pH 9.5). The class given is in vivo, male Wistar rats. On the procedure:
as §1, §2, §3
(§7) The stability in an amine-containing alkaline solution of the modified IAP of the present invention and an IAP amidino derivative disclosed in Japanese Patent Application Laid-Open No. 129295/80 (Application No. 35877/79) was examined.

For series [4], the system named is leukocyte count. The series is described as follows: Stability in methylamine solution: change with time of ΔLP activity. Type of series: in vivo, male Wistar rats. The settings on record: 3.44M methylamine solution (pH 9.5).
Excerpt: as §5, §6, §7

For series [5], the system named is pertussis 18-323 strain (I-phase). The series is described as follows: Infection prevention test (survival after intracerebral inoculation of live pertussis bacteria). The class given is in vivo, Bordetella pertussis (ddY mice, male). The following applies: two weeks after inoculation. On the procedure:
(ii) The IAP processed into toxoid with glutaraldehyde (hereinafter referred to as toxoid-processed IAP) used as the comparative example was prepared in the following precedures. To 0.1M phosphate buffer solution (containing 2M urea, pH 7.0) containing IAP (0.5 mg/ml) adjusted to pH 9.0 by adding 1N sodium hydroxide, was added a 25% aqueous solution of glutaraldehyde so that the final concentration of glutaraldehyde would become 0.05%. The mixed solution was reacted under stirring at room temperature for 22 hours. The resultant solution was then sufficiently dialyzed against a 0.1M phosphate buffer solution (containing 2M urea, pH 7.0) to obtain the toxoid-processed IAP.
(iii) A toxoid-processed reductively methylated IAP was also similarly prepared by using a reductively methylated IAP solution in place of an IAP solution.
There were prepared five kinds of the physiological saline solutions containing a dead pertussis vaccine (made by KAKEN PHARMACEUTICAL CO., LTD.), toxoid-processed IAP, toxoid-processed reductively methylated IAP, IAP and reductively methylated IAP, respectively, and 0.1 ml of each of these physiological saline solutions was administered into the peritoneal cavities of the ddY mice (male, 4 weeks old) (13 mice per one group). Two weeks after the administration, the live pertussis 18-323 strain (I-phase) bacteria were inoculated into the encephalon at a rate of 4×10^4cells/animal. […] Used as the control was a group of mice which were treated similarly by giving 0.1 ml of a physiological saline solution alone into the peritoneal cavity.

In a further series the test system is secretion of insulin. As to the kind of experiment: Activity of promoting the secretion of insulin. The class given is in vivo, mammals. From the text: The definition of the activity units used in the present invention is described in Japanese Patent Application Laying Open No. 96392/72 which corresponds to G.B. Patent No. 1,569,046.
The next series relates to glucose tolerance. The series is described as follows: Glucose tolerance. Type of series: in vivo. The settings on record: mammals.
The next series in a line: Solubility. Type of series: physicochemical. The settings on record: pyridine, 2-mercaptoethanol, aqueous sodium dodecylsulfate and cystine. The protocol:
(§8) The powder of IAP obtained by freeze-drying the aqueous dialysed and de-salted solution is non-deliquescent, and white or light brown in colour, and is soluble in water to the extent of 3 to 5 mg/ml at room temperature. […] When IAP is put into aqueous 6N hydrochloric acid solution, a precipitate white in colour separates out. Addition of sodium sulfate, dry ice plus acetone, ethanol, trichloroacetic acid, aqueous solution of zinc chloride, or aqueous solutions containing several other kinds of metal ions to an aqueous solution of IAP at 4° C., causes the aqueous solution to become turbid and a precipitate to settle out. When IAP is put into a mixture of water and chloroform or of water and n-butanol, IAP gathers on the interface of both liquids.

Another series can be described thus: Isoelectric point. Type of series: physicochemical. From the text: The isoelectric point of IAP determined by the method described in Wringley, C.W., "J. Chromatogr.", 36, 362-372 (1968) is pH 8.9±0.5.
The nature of series [6]: Stability of IAP (heat, moisture). The class given is physicochemical. On the procedure: as §8
In addition, when IAP is dissolved into aqueous 0.1M phosphate buffer solution of pH of 7.0 containing sodium chloride at 0.5M and the solution is subjected to dialysis against distilled water as the external liquid, the mixed solution becomes turbid once, however, with the progress of dialysis, the white turbidity disappears completely.

Usually LD50 stands for the dose at which mortality reaches 50%.

For “IAP: Islets-Activating Protein obtained by the cultivation of suitable strain(s) of the microorganism Bordetella pertussis (Phase I or II)”, the EpI activity came to 85.0% in series [1]; 82.0% in series [3] (treatment time 0 hr); 83.0% in series [3] (treatment time 24 hr); 80.5% in series [3] (treatment time 48 hr); 79.8% in series [3] (treatment time 72 hr). Moreover, the ΔLP activity is 140.1 × 10^2 /mm^3 in the series with leukocyte count [2]; 144 × 10^2 /mm^3 with leukocyte count [4] (treatment time 0 hr); 141 × 10^2 /mm^3 in the series with leukocyte count [4] (treatment time 24 hr); 138 × 10^2 /mm^3 in the series with leukocyte count [4] (treatment time 48 hr); 139 × 10^2 /mm^3 in the series with leukocyte count [4] (treatment time 72 hr). The LD50 in the series with ddY mice was 0.215 mg/kg. The “Number of animals which survived/total number of animals tested” value in [5] (0.04 μg/animal i.p.) is listed as 6/13; in series [5] (0.2 μg/animal i.p.), 8/13; in [5] (1 μg/animal i.p.) it was 3/13. The Survival rate is on record as 46% in series [5] (0.04 μg/animal i.p.), 62% in [5] (0.2 μg/animal i.p.) and 23% in [5] (1 μg/animal i.p.). Moreover, the “duration of insulin secretion promoting and glucose tolerance improving actions” value with secretion of insulin (after a single administration) is given as “several weeks to several months”. In addition, in the series on secretion of insulin (in vivo), the “activity of promoting the secretion of insulin” value is “not less than 193 unit/μg”. Also, in the series with glucose tolerance, the “activity of improving the glucose tolerance” value is “improving the glucose tolerance in mammals”. Further, in “Solubility”, the “solubility in other solvents” value was “soluble in pyridine, 2-mercaptoethanol and aqueous solution of sodium dodecylsulfate and of cystine”. Moreover, the isoelectric point in the series “Isoelectric point” is given as 8.9±0.5 pH. The “deliquescence of freeze-dried powder” value in series [6] is “non-deliquescent”. The “stability of aqueous solution on heating” value in [6] (heated to 80° C. or higher) is listed as “the solution becomes turbid white in colour”.
